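Step 1: Grow cells in 96-well plates. Step 2: Expose to compound for 48 hours at 5 concentrations. Step 3: Interpolate endpoints linearly; if unreached, use highest concentration. TGI: total growth inhibition.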
Key:
Assay in all cases: NCI anticancer screen, dose series, 48 h
786-0 renal = test system: 786-0 renal
A498 renal = test system: A498 renal
A549 NSCLC = test system: A549 NSCLC
ACHN renal = test system: ACHN renal
BT-549 breast = test system: BT-549 breast
CAKI-1 renal = test system: CAKI-1 renal
CCRF-CEM leukemia = test system: CCRF-CEM leukemia
COLO 205 colon = test system: COLO 205 colon
DU-145 prostate = test system: DU-145 prostate
EKVX NSCLC = test system: EKVX NSCLC
HCC-2998 colon = test system: HCC-2998 colon
HCT-116 colon = test system: HCT-116 colon
HCT-15 colon = test system: HCT-15 colon
HL-60(TB) leukemia = test system: HL-60(TB) leukemia
HOP-62 NSCLC = test system: HOP-62 NSCLC
HS 578T breast = test system: HS 578T breast
HT29 colon = test system: HT29 colon
IGROV1 ovarian = test system: IGROV1 ovarian
K-562 leukemia = test system: K-562 leukemia
KM12 colon = test system: KM12 colon
M14 melanoma = test system: M14 melanoma
MALME-3M melanoma = test system: MALME-3M melanoma
MCF7 breast = test system: MCF7 breast
MDA-MB-231 breast = test system: MDA-MB-231 breast
MDA-MB-435 = test system: MDA-MB-435
MDA-N = test system: MDA-N
MOLT-4 leukemia = test system: MOLT-4 leukemia
NCI-H226 lung = test system: NCI-H226 lung
NCI-H23 lung = test system: NCI-H23 lung
NCI-H460 lung = test system: NCI-H460 lung
NCI-H522 lung = test system: NCI-H522 lung
NCI/ADR-RES ovarian = test system: NCI/ADR-RES ovarian
OVCAR-3 ovarian = test system: OVCAR-3 ovarian
OVCAR-4 ovarian = test system: OVCAR-4 ovarian
OVCAR-5 ovarian = test system: OVCAR-5 ovarian
OVCAR-8 ovarian = test system: OVCAR-8 ovarian
PC-3 prostate = test system: PC-3 prostate
RPMI-8226 leukemia = test system: RPMI-8226 leukemia
RXF 393 renal = test system: RXF 393 renal
SF-268 CNS = test system: SF-268 CNS
SF-295 CNS = test system: SF-295 CNS
SF-539 CNS = test system: SF-539 CNS
SK-MEL-2 melanoma = test system: SK-MEL-2 melanoma
SK-MEL-5 melanoma = test system: SK-MEL-5 melanoma
SK-OV-3 ovarian = test system: SK-OV-3 ovarian
SN12C renal = test system: SN12C renal
SNB-19 CNS = test system: SNB-19 CNS
SNB-75 CNS = test system: SNB-75 CNS
SR leukemia = test system: SR leukemia
T-47D breast = test system: T-47D breast
TK-10 renal = test system: TK-10 renal
U251 CNS = test system: U251 CNS
UACC-257 melanoma = test system: UACC-257 melanoma
UACC-62 melanoma = test system: UACC-62 melanoma
UO-31 renal = test system: UO-31 renal
HOP-92 NSCLC = test system: HOP-92 NSCLC
LOX IMVI melanoma = test system: LOX IMVI melanoma
SK-MEL-28 melanoma = test system: SK-MEL-28 melanoma
SW-620 colon = test system: SW-620 colon

SMILES: Cc1cc(N(CCC#N)CCC#N)ccc1/C(N=Nc1ccc(Cl)cc1)=N\NC(=O)c1ccccc1
- TGI (786-0 renal): > 100 µM
- TGI (A498 renal): 58.5 µM
- TGI (A549 NSCLC): > 100 µM
- TGI (ACHN renal): > 100 µM
- TGI (BT-549 breast): > 100 µM
- TGI (CAKI-1 renal): > 100 µM
- TGI (CCRF-CEM leukemia): > 100 µM
- TGI (COLO 205 colon): 94.1 µM
- TGI (DU-145 prostate): > 100 µM
- TGI (EKVX NSCLC): > 100 µM
- TGI (HCC-2998 colon): > 100 µM
- TGI (HCT-116 colon): > 100 µM
- TGI (HCT-15 colon): > 100 µM
- TGI (HL-60(TB) leukemia): > 100 µM
- TGI (HOP-62 NSCLC): > 100 µM
- TGI (HS 578T breast): 55 µM
- TGI (HT29 colon): 47.6 µM
- TGI (IGROV1 ovarian): > 100 µM
- TGI (K-562 leukemia): > 100 µM
- TGI (KM12 colon): > 100 µM
- TGI (M14 melanoma): > 100 µM
- TGI (MALME-3M melanoma): > 100 µM
- TGI (MCF7 breast): > 100 µM
- TGI (MDA-MB-231 breast): > 100 µM
- TGI (MDA-MB-435): 76.8 µM
- TGI (MDA-N): 74.2 µM
- TGI (MOLT-4 leukemia): > 100 µM
- TGI (NCI-H226 lung): > 100 µM
- TGI (NCI-H23 lung): > 100 µM
- TGI (NCI-H460 lung): > 100 µM
- TGI (NCI-H522 lung): 48.1 µM
- TGI (NCI/ADR-RES ovarian): > 100 µM
- TGI (OVCAR-3 ovarian): > 100 µM
- TGI (OVCAR-4 ovarian): > 100 µM
- TGI (OVCAR-5 ovarian): > 100 µM
- TGI (OVCAR-8 ovarian): > 100 µM
- TGI (PC-3 prostate): > 100 µM
- TGI (RPMI-8226 leukemia): > 100 µM
- TGI (RXF 393 renal): > 100 µM
- TGI (SF-268 CNS): > 100 µM
- TGI (SF-295 CNS): 77.6 µM
- TGI (SF-539 CNS): 50.8 µM
- TGI (SK-MEL-2 melanoma): > 100 µM
- TGI (SK-MEL-5 melanoma): > 100 µM
- TGI (SK-OV-3 ovarian): > 100 µM
- TGI (SN12C renal): > 100 µM
- TGI (SNB-19 CNS): > 100 µM
- TGI (SNB-75 CNS): > 100 µM
- TGI (SR leukemia): > 100 µM
- TGI (T-47D breast): 88.3 µM
- TGI (TK-10 renal): > 100 µM
- TGI (U251 CNS): > 100 µM
- TGI (UACC-257 melanoma): > 100 µM
- TGI (UACC-62 melanoma): > 100 µM
- TGI (UO-31 renal): > 100 µM

SMILES: COc1ccc(/C=C2\CCC(C)C3=C2NC(=S)NC3c2ccc(OC)c(OC)c2)cc1OC (stereo not given)
- TGI (786-0 renal): > 31.6 µM
- TGI (A498 renal): > 31.6 µM
- TGI (A549 NSCLC): > 100 µM
- TGI (ACHN renal): > 31.6 µM
- TGI (BT-549 breast): 26.2 µM
- TGI (CAKI-1 renal): > 31.6 µM
- TGI (COLO 205 colon): 24.7 µM
- TGI (DU-145 prostate): > 31.6 µM
- TGI (EKVX NSCLC): > 31.6 µM
- TGI (HCC-2998 colon): > 100 µM
- TGI (HCT-116 colon): > 31.6 µM
- TGI (HCT-15 colon): > 31.6 µM
- TGI (HL-60(TB) leukemia): > 31.6 µM
- TGI (HOP-62 NSCLC): > 100 µM
- TGI (HOP-92 NSCLC): > 100 µM
- TGI (HS 578T breast): > 31.6 µM
- TGI (HT29 colon): > 100 µM
- TGI (IGROV1 ovarian): > 31.6 µM
- TGI (K-562 leukemia): > 31.6 µM
- TGI (KM12 colon): > 31.6 µM
- TGI (LOX IMVI melanoma): > 31.6 µM
- TGI (M14 melanoma): > 31.6 µM
- TGI (MCF7 breast): > 31.6 µM
- TGI (MDA-MB-231 breast): > 31.6 µM
- TGI (MDA-MB-435): > 31.6 µM
- TGI (MDA-N): 12.1 µM
- TGI (MOLT-4 leukemia): 25.3 µM
- TGI (NCI-H226 lung): > 100 µM
- TGI (NCI-H460 lung): > 100 µM
- TGI (NCI-H522 lung): > 100 µM
- TGI (NCI/ADR-RES ovarian): > 100 µM
- TGI (OVCAR-3 ovarian): > 31.6 µM
- TGI (OVCAR-4 ovarian): > 100 µM
- TGI (OVCAR-5 ovarian): > 31.6 µM
- TGI (OVCAR-8 ovarian): > 90.2 µM
- TGI (PC-3 prostate): > 31.6 µM
- TGI (RPMI-8226 leukemia): > 31.6 µM
- TGI (SF-268 CNS): > 31.6 µM
- TGI (SF-295 CNS): > 31.6 µM
- TGI (SF-539 CNS): > 31.6 µM
- TGI (SK-MEL-2 melanoma): > 31.6 µM
- TGI (SK-MEL-28 melanoma): > 31.6 µM
- TGI (SK-MEL-5 melanoma): 28.8 µM
- TGI (SK-OV-3 ovarian): > 31.6 µM
- TGI (SN12C renal): > 31.6 µM
- TGI (SNB-19 CNS): > 31.6 µM
- TGI (SNB-75 CNS): > 100 µM
- TGI (SR leukemia): 39.3 µM
- TGI (SW-620 colon): > 31.6 µM
- TGI (T-47D breast): > 27.4 µM
- TGI (TK-10 renal): > 31.6 µM
- TGI (U251 CNS): > 31.6 µM
- TGI (UACC-257 melanoma): > 31.6 µM
- TGI (UACC-62 melanoma): > 31.6 µM
- TGI (UO-31 renal): > 31.6 µM
